Laboratory results published in publication PMC12661400, “Oral bioavailable ITRI-148 degrades androgen receptor variants and overcomes antiandrogen resistance in advanced prostate cancer” (Neoplasia (New York, N.Y.), 2025).
Where “and” joins values, the source holds several entries; their conditions need not be identical. Identical values can stand only once. Like-named read-outs stand apart in the source and are kept apart here.

Assays:
[1] = Repeated-dose toxicity study: mortality, body weight, tolerability; assay type: in vivo
Description: Repeated-dose toxicity and toxicokinetic studies
Repeated-dose oral toxicity study and toxicokinetic (TK) profiling was conducted in Sprague-Dawley rats. ITRI-148 was administered once daily using oral gavage at doses of 100, 300, 600, and 1000 mg/kg/day for 7 consecutive days, followed by a 7-day recovery period. Each dose group comprised 3 animals designated for toxicokinetic (TK) analysis and 6 animals for dose-range finding (DRF) evaluation. Clinical observations, body weights, and food consumption were monitored daily throughout the dosing and recovery periods. […]
All samples were analyzed in duplicate. Hematology and serum clinical chemistry analyses were performed on Day 7 (end of dosing) and Day 14 (end of recovery). At necropsy, organ weights (including heart, liver, kidney, spleen, thymus, and adrenal glands) were recorded, and gross pathological changes were examined. All procedures were conducted in compliance with institutional animal care and use guidelines. […]
Targeting androgen receptor and the variants by an orally bioavailable
Proteolysis Targeting Chimeras compound in castration resistant prostate cancer

[2] = tested on: CWR22Rv1 xenografts; assay: Hormone-intact CWR22Rv1 xenograft study; assay type: in vivo
From the text: Immunodifficient male CB-17 SCID mice (CB17/Icr-Prkdc^scid/IcrIcoCrlBltw) and NOD SCID mice (NOD.CB17-Prkdc^scid/NCrCrlBltw) mice at four to six weeks of age were purchased from BioLASCO Taiwan Co., Ilan, Taiwan. All mice were housed in conventional cages in the AAALAC Full Accreditation (2011) in Industrial Technology Research Institute and were allowed to acclimatize and recover from shipping-related stress for one week prior to the study. The health of the mice was monitored by daily observations. Animals were kept in rooms at temperature of 22–26°C with 40–70 % humidity, positive pressure, 60 % air recirculation, ventilation rate 15–20 changes per hour, and a controlled light-dark cycle (12–12 hours). The order and location of each animal cage was randomly assigned to minimize potential confounders. CWR22Rv1 cells (5 × 10^6) were suspended in 100 μL of PBS with 30 % Matrigel and subcutaneously implanted into the right flank of male CB-17 SCID mice. Tumors were measured with calipers, and tumor size was calculated as follows: tumor volume (V) = (L × S^2)/2 (L, longest diameter, mm; S, shortest diameter, mm). When mean tumor volume reached 150–200 mm^3, the mice were randomly assigned into indicated groups (n = 5-6/ group) and the day of initiating treatments was assigned as day 0. VCaP cells (5 × 10⁶) suspended in 50 % Matrigel were subcutaneously implanted into male NOD SCID mice. […] Tumor size and body weight of the animals were monitored and recorded two to three times per week. […] The drug antitumor efficacy was presented as percentages of TGI of each tested animal, calculated as follows: [1 − (final tumor volume ^treated group – initial tumor volume ^treated group) / (final tumor volume ^vehicle group – initial tumor volume ^vehicle group)] × 100. Body weight of each mouse was also compared to that on the first day of treatment (day 0) and expressed as a percentage of day 0 value. […] Statistical analysis of the differences between two drug and vehicle treated groups was determined by two-tailed Student’s t-test.

[3] = tested on: AR; assay: AR degradation by immunoblotting in CRPC cells; assay type: cell-based
Description: Cell lysis, Western blotting, and AR ubiquitination were performed as described in [17]. Primary antibodies: AR (Millipore 06-680), AR-V7 (RevMAb Biosciences 31-1109-00), PSA (ABclonal A4355), NKX3-1 (Cell Signaling Technology 92998), GAPDH (Cell Signaling Technology 2118) and β-Actin (Sigma-Aldrich A5441).
Fig. 1 ITRI-148 induces degradation of both AR and AR-V7 proteins in CRPC cells. […] (B) Expression of Flag-tagged AR-V7 in 293T cells following ITRI-148 treatment. Cells transiently expressing Flag-AR-V7 were pretreated with 50 μg/mL cycloheximide for 1 hour, then exposed to ITRI-148 at the indicated concentrations for 8 hours. AR-V7 expression was detected using an anti-Flag antibody. (C) Representative immunoblots showing AR protein levels in VCaP and CWR22Rv1 cells after 48 hours of ITRI-148 treatment. An N-terminal AR antibody was used to detect both full-length AR and LBD-truncated variants (AR-V(ΔLBD)) in CWR22Rv1 cells, while AR-V7 was detected using an AR-V7-specific antibody. DC₅₀ values were calculated from normalized band intensities, and Dₘₐₓ represents the maximal degradation achieved at 10 μM ITRI-148. (D) Immunofluorescence staining of AR after 24 or 48 hours of ITRI-148 treatment, detected using an N-terminal AR antibody. […] (F) Western blot analysis of ectopically expressed wild-type (WT) and mutant Myc-tagged AR in DU145 cells following 24 hours of treatment with 10 μM ITRI-148. Quantified AR levels are as indicated. TEXT PRINTED IN THE PICTURE: (C) ITRI-148: DC50 (μM) AR CWR22Rv1: 1.23 ± 1.86; DC50 (μM) AR VCaP: 0.05 ± 0.03; DC50 (μM) AR-V7 CWR22Rv1: 1.20 ± 0.92; DC50 (μM) AR-V7 VCaP: 0.02 ± 0.02; Dmax (%) AR CWR22Rv1: 65.02 ± 19.91; Dmax (%) AR VCaP: 80.49 ± 5.61; Dmax (%) AR-V7 CWR22Rv1: 72.10 ± 3.15; Dmax (%) AR-V7 VCaP: 91.36 ± 2.05

[4] = In vitro stability in plasma; assay type: in vitro ADME; conditions: for Remaining of intact drug (%): 1 μM, incubation up to 4 hours; for half-life at 1 μM: read-out: Plasma Stability t1/2
Description: The stability of ITRI-148 was assessed in plasma across four species: humans, dogs, rats, and mice. ITRI-148 added to pre-warmed plasma at 1 μM was maintained at the designated temperature, and aliquots were collected at 0, 0.5, 1, 2, and 4 hours after incubation. At each time point, 20 μL of the samples was taken to terminate the reaction, followed by LC-MS/MS analysis to determine the remaining compound concentration. Data from duplicated experiments was calculated and presented as mean ± SD.

In the case of `O=C1CCC(N2C(=O)c3cccc(NCC(=O)N4CCC(N5CCC(C#Cc6ccc(C7CCN(C8=Nn9c(nnc9C(F)(F)F)CC8)CC7)cc6)CC5)CC4)c3C2=O)C(=O)N1` (stereo not shown) [ITRI-148], the “margin of maximum rat dose (1000 mg/kg) over the efficacious dose used in xenograft model” value ([1]; rat, in vivo) is reported as greater than 10 fold, the body weight loss ([1]; rats, PO 100-1000 mg/kg/day, any treatment group) is reported as “No animal exhibited >10% weight loss in any treatment group” and the “toxicity reflected by weight-loss of the animals” value ([2]; PO 30-60 mg/kg BID) is reported as “No toxicity reflected by weight-loss of the animals was observed”. The “tumor growth inhibition (TGI)” value ([2]; oral 30 mg/kg BID) was 38.08%, the “tumor growth inhibition (TGI)” value ([2]; oral 60 mg/kg BID) was 69.39% and the DC50 ([3]; CWR22Rv1, 48 hours, read-out: DC50 AR) was 1230 ± 1860 nM. The “Dmax AR” value ([3]; CWR22Rv1, maximal degradation at 10 μM) was 65.02 ± 19.91%, the DC50 ([3]; VCaP cells, read-out: half-maximal degradation concentration (DC50) for AR) was roughly 50 nM and the DC50 ([3]; VCaP, 48 hours, read-out: DC50 AR) was 50 ± 30 nM. The “Dmax AR” value ([3]; VCaP, maximal degradation at 10 μM) was 80.49 ± 5.61% and 80%, the “Remaining of intact drug (%)” value ([4]; dog plasma) was 79.4 ± 0.6% and the half-life at 1 μM ([4]; dog plasma) was greater than 4 h. For the same compound, the “Remaining of intact drug (%)” value ([4]; human plasma) was 86.9 ± 5.2%, the half-life at 1 μM ([4]; human plasma) was greater than 4 h and the “Remaining of intact drug (%)” value ([4]; rat plasma) was 62.1 ± 5.8%. The half-life at 1 μM ([4]; rat plasma) was greater than 4 h.
